Assay results: publication PMC3919815, “Anti-Tumor Effects of Novel 5-O-Acyl Plumbagins Based on the Inhibition of Mammalian DNA Replicative Polymerase Activity” (PLoS ONE, 2014)

Experiments:
[1] = test system: HT-29 cells (colon cancer); assay: Cancer cell viability, MTT assay; assay type: cell-based, human; conditions: 48 h, mean ± SD (n = 5)
Experimental: The following human cancer cell lines were obtained from the American Type Culture Collection (Manassas, VA, USA): lung (A549), prostate (DU145 and PC3), colon (HCT116 and HT-29), cervix (HeLa), hepatocellular liver (HepG2), breast (MCF-7), and pancreatic cancer (PANC-1). These cells were cultured in RPMI 1640 medium supplemented with 10% fetal bovine serum, penicillin (100 units/mL), streptomycin (100 µg/mL), and 1.6 mg/mL NaHCO3 at 37°C in a humid atmosphere of 5% CO2/95% air. For the cell viability assay, cells were seeded at 1×10^3 cells/well in a 96-well microplate with various concentrations of the test compounds, and incubated for 48 h. MTT (3-(4,5-dimethylthiazol-2-yl)-2,5-diphenyl tetrazolium bromide) solution was added to a final concentration 0.6 mg/mL in Milli-Q purified water for 2 h, after which time the medium was discarded and the cells lysed in DMSO. A540 was then measured in a microplate reader (Model 680, Bio-Rad Laboratories, Hercules, CA, USA).

Human pol λ = molecular target: T1, Human pol λ (Homo sapiens, UniProt Q9UGP5); assay: DNA polymerase activity inhibition; assay type: biochemical; conditions: 0.05 units enzyme; mean ± SD (n = 3)
T1 construct: His tag; made in house
T1 sequence (Q9UGP5 1-575): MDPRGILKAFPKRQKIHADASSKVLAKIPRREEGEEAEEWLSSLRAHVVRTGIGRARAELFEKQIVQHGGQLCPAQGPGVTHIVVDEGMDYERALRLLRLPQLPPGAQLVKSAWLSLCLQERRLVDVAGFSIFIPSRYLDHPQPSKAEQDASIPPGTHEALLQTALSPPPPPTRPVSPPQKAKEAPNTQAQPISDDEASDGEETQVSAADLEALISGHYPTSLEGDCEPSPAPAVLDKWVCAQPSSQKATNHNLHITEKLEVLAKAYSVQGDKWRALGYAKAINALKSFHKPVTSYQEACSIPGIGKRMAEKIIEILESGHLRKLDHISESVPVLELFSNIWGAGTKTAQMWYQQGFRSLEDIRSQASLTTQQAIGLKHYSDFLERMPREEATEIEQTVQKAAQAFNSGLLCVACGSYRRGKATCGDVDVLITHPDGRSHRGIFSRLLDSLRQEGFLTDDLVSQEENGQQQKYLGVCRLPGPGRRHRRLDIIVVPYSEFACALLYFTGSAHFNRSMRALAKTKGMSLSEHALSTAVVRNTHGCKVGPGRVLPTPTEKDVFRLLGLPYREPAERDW
Excerpt: (§1) Pol α was purified from calf thymus by immunoaffinity column chromatography as described by Tamai et al.. Recombinant rat pol β was purified from Escherichia coli JMpβ5 as described by Date et al.. The human pol γ catalytic gene was cloned into pFastBac. Histidine-tagged enzyme was expressed using the BACTO-BAC HT Baculovirus Expression System according to the manufacturer's instructions (Life Technologies, Frederick, MD, USA) and purified using ProBound resin (Invitrogen Japan, Tokyo Japan). Human pols δ and ε were purified by nuclear fractionation of human peripheral blood cancer cells (Molt-4) using the second subunit of pol δ and ε-conjugated affinity column chromatography, respectively. A truncated form of human pol η (residues 1–511) tagged with His6 at its C-terminal was expressed in E. coli cells and purified as described by Kusumoto et al.. A recombinant mouse pol ι tagged with His6 at its C-terminal was expressed and purified by Ni–NTA column chromatography. A truncated form of pol κ (residues 1–560) with 6× His-tags attached at the C-terminus was overexpressed in E. coli and purified as described by Ohashi et al.. Recombinant human His-pol λ was overexpressed and purified according to a method described by Shimazaki et al.. Recombinant human His-pol μ was overexpressed in E. coli BL21 and purified using Glutathione Sepharose 4B (GE Healthcare Bio-Science Corp., Piscataway, NJ, USA) column chromatography according to the method for pol λ preparation by Shimazaki et al.. Pol α from a higher plant, cauliflower, was purified from the inflorescence structure according to the methods outlined by Sakaguchi et al.. Recombinant rice (Oryza sativa L. cv. Nipponbare) pol λ tagged with His6 at the C-terminus was expressed in E. coli and purified as described by Uchiyama et al.. Calf TdT, Taq pol, T4 pol, T7 RNA polymerase, and T4 polynucleotide kinase were purchased from Takara Bio Inc. (Kyoto, Japan). The Klenow fragment of pol I from E. coli was purchased from Worthington Biochemical Corp. (Freehold, NJ, USA). Bovine pancreas deoxyribonuclease I was obtained from Stratagene Cloning Systems (La Jolla, CA, USA).
(§2) The reaction mixtures for calf pol α, rat pol β, plant pol α, and prokaryotic pols have been described previously, [35]; those for pol γ as well as pols δ and ε were previously described by Umeda et al. and Ogawa et al., respectively. Those for pols η, ι, and κ were the same as for pol α, and those for pols λ and μ were the same as for pol β. For the pol reactions, poly(dA)/oligo(dT)18 (A/T, 2/1) and dTTP were used as the DNA template-primer substrate and nucleotide (dNTP; 2′-deoxynucleoside-5′-triphosphate) substrate, respectively. For the TdT reactions, oligo(dT)18 (3′-OH) and dTTP were used as the DNA primer substrate and nucleotide substrate, respectively.
(§3) The chemically synthesized 5-O-acyl plumbagins (2a–j) were dissolved in distilled dimethyl sulfoxide (DMSO) to various concentrations and sonicated for 30 s. Subsequently, 4 µL aliquots were mixed with 16 µL of each enzyme (0.05 units) in 50 mM Tris-HCl at pH 7.5, containing 1 mM dithiothreitol, 50% glycerol (by vol), and 0.1 mM ethylenediaminetetraacetic acid and held at 0°C for 10 min. These inhibitor-enzyme mixtures in 8 µL volumes were next added to 16 µL of enzyme standard reaction mixture and incubated at 37°C for 60 min, except for Taq pol, which was incubated at 74°C for 60 min. Activity without inhibitor was considered 100%, and the relative activity was determined for each inhibitor concentration. One unit of pol activity was defined as the amount of each enzyme that catalyzed the incorporation of 1 nmol dTTP into synthetic DNA template primers in 60 min, at 37°C, and under standard reaction conditions, [35].

Taq pol = molecular target: T2, Taq pol (Thermus aquaticus, UniProt P19821); assay: DNA polymerase activity inhibition; assay type: biochemical
T2 construct: purchased Takara Bio Inc. (Kyoto, Japan)
T2 sequence (P19821 whole entry): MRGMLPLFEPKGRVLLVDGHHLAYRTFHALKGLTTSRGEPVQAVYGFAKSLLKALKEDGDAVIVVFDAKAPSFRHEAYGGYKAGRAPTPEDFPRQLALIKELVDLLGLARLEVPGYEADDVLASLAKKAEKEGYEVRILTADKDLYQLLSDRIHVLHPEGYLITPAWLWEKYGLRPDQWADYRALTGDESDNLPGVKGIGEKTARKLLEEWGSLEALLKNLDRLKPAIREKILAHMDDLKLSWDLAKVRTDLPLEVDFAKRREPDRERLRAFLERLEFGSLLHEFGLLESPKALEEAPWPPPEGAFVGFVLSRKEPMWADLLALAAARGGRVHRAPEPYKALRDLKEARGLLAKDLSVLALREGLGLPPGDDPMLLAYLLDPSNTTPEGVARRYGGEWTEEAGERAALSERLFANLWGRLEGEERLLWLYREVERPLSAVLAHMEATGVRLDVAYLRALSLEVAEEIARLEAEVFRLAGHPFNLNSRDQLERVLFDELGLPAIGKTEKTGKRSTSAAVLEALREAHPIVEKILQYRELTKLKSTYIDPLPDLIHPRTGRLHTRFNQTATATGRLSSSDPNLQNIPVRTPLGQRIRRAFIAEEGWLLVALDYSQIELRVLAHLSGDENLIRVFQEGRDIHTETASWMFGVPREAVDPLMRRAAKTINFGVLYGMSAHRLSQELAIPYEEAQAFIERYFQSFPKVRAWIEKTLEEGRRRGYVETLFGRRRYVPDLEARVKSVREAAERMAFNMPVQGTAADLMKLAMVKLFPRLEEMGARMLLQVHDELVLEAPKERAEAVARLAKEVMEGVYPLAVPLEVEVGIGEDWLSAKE
Excerpt: as §1, §2, §3

T4 pol = molecular target: T3, T4 pol (Enterobacteria phage T4, UniProt P04415); assay: DNA polymerase activity inhibition; assay type: biochemical
T3 construct: purchased Takara Bio Inc. (Kyoto, Japan)
T3 sequence (P04415 whole entry): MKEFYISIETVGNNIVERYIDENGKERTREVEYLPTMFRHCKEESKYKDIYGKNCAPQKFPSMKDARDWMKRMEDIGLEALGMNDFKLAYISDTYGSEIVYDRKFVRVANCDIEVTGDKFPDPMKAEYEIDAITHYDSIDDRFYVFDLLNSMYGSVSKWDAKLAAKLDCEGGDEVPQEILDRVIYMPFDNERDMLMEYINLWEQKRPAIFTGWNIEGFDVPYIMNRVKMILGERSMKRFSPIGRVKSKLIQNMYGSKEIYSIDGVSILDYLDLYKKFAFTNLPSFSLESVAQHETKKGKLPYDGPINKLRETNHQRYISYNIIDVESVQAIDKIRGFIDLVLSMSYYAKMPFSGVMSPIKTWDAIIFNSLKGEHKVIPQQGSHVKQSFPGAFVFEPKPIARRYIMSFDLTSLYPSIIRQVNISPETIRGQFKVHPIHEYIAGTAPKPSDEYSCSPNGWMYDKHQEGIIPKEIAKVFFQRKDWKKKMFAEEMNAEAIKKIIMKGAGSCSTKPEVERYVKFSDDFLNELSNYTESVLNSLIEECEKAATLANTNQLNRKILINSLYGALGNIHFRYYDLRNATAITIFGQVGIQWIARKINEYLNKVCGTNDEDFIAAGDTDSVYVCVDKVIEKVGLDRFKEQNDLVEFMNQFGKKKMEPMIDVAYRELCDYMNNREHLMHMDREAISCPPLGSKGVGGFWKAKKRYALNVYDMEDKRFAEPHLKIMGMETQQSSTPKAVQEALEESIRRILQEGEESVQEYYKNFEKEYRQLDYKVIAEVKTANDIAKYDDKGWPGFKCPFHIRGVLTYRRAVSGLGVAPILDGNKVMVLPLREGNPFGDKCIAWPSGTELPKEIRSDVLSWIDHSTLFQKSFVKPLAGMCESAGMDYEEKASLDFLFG
Excerpt: as §1, §2, §3

Human pol γ = molecular target: T4, Human pol γ (Homo sapiens, UniProt P54098); assay: DNA polymerase activity inhibition; assay type: biochemical
T4 construct: His tag; made in house
Excerpt: as §1, §2, §3

Rat pol β = molecular target: T5, Rat pol β (Rattus norvegicus, UniProt P06766); assay: DNA polymerase activity inhibition; assay type: biochemical; conditions: 0.05 units enzyme; mean ± SD (n = 3)
T5 construct: made in house; host or cells: Escherichia coli JMpβ5
Excerpt: as §1, §2, §3

CCCCCCCC/C=C\CCCCCCCC(=O)Oc1cccc2c1C(=O)C=C(C)C2=O [2f, 5-O-oleoyl-2-methyl-1,4-naphthoquinone]
LD50 values [1]: 2.9 ± 0.4 µM
LD50 values ([1]; listed as C18:1-acyl plumbagin): 2.9 µM
IC50 (Human pol λ): 9.2 ± 0.43 µM
effect on enzyme activity (in words) (Taq pol): had no effect
IC50 (Taq pol; 0.05 units enzyme, 74°C): > 100 µM
effect on enzyme activity (in words) (T4 pol): had no effect
IC50 (T4 pol; 0.05 units enzyme): > 100 µM
inhibition of pol γ relative activity (in words) (Human pol γ; 10 µM compound, Fig. 4): strongest inhibition
IC50 (Human pol γ; 0.05 units enzyme, mean ± SD (n = 3)): 4.5 ± 0.4 µM
IC50 (Rat pol β): 10.3 ± 0.46 µM
